The values below are quoted from earlier work in PubChem BioAssay AID1259409 (Chemical Carcinogenesis Research Information System (CCRIS), 2018).

This data set has as its system rodent chemically induced tumor inhibition, incidence and multiplicity. As to the kind of experiment: CCRIS tumor inhibitor studies. The following applies: Route [Inhibitor]: ORAL.

For the compound `S=C=NCCc1ccccc1`, the “tumour outcome (control, treated, inhibition, significance)” value is listed as 14/25 (56.0%), 12/28 (42.9%), 23%, not significant (Carcinogen: N-NITROSOBIS(2-OXOPROPYL)AMINE [60599-38-4], Dose [Inhibitor]: 3 UMOL IN DIET FOR 49 WK BEGINNING 2 WK POST LAST CARCINOGEN DOSE (STUDY DURATION: 52 WK), Species: HAMSTER, Strain/Sex: SYRIAN/FEMALE, Target Tissue: Type of Lesion: LUNG: ADENOCARCINOMA, Dose [Carcinogen]: 20 MG/KG BW 1X/WK FOR 2 WK (STUDY DURATION: 52 WK), Promoter: NONE); 20/25 (88.0%), 26/28 (92.9%), -6%, not significant (Carcinogen: N-NITROSOBIS(2-OXOPROPYL)AMINE [60599-38-4], Dose [Inhibitor]: 3 UMOL IN DIET FOR 49 WK BEGINNING 2 WK POST LAST CARCINOGEN DOSE (STUDY DURATION: 52 WK), Species: HAMSTER, Strain/Sex: SYRIAN/FEMALE, Target Tissue: Type of Lesion: LUNG: ADENOMA, Dose [Carcinogen]: 20 MG/KG BW 1X/WK FOR 2 WK (STUDY DURATION: 52 WK), Promoter: NONE); 20/25 (80.0%), 22/28 (78.6%), 2%, not significant (Carcinogen: N-NITROSOBIS(2-OXOPROPYL)AMINE [60599-38-4], Dose [Inhibitor]: 3 UMOL IN DIET FOR 49 WK BEGINNING 2 WK POST LAST CARCINOGEN DOSE (STUDY DURATION: 52 WK), Species: HAMSTER, Strain/Sex: SYRIAN/FEMALE, Target Tissue: Type of Lesion: PANCREAS: ADENOCARCINOMA, Dose [Carcinogen]: 20 MG/KG BW 1X/WK FOR 2 WK (STUDY DURATION: 52 WK), Promoter: NONE); 18/25 (72.0%), 16/28 (57.1%), 21%, not significant (Carcinogen: N-NITROSOBIS(2-OXOPROPYL)AMINE [60599-38-4], Dose [Inhibitor]: 6 UMOL IN DIET FOR 49 WK BEGINNING 2 WK POST LAST CARCINOGEN DOSE (STUDY DURATION: 52 WK), Species: HAMSTER, Strain/Sex: SYRIAN/FEMALE, Target Tissue: Type of Lesion: LIVER: HEPATOCELLULAR ADENOMA, Dose [Carcinogen]: 20 MG/KG BW 1X/WK FOR 2 WK (STUDY DURATION: 52 WK), Promoter: NONE); 14/25 (56.0%), 11/28 (39.3%), 30%, not significant (Carcinogen: N-NITROSOBIS(2-OXOPROPYL)AMINE [60599-38-4], Dose [Inhibitor]: 6 UMOL IN DIET FOR 49 WK BEGINNING 2 WK POST LAST CARCINOGEN DOSE (STUDY DURATION: 52 WK), Species: HAMSTER, Strain/Sex: SYRIAN/FEMALE, Target Tissue: Type of Lesion: LUNG: ADENOCARCINOMA, Dose [Carcinogen]: 20 MG/KG BW 1X/WK FOR 2 WK (STUDY DURATION: 52 WK), Promoter: NONE); 20/25 (88.0%), 24/28 (85.7%), 3%, not significant (Carcinogen: N-NITROSOBIS(2-OXOPROPYL)AMINE [60599-38-4], Dose [Inhibitor]: 6 UMOL IN DIET FOR 49 WK BEGINNING 2 WK POST LAST CARCINOGEN DOSE (STUDY DURATION: 52 WK), Species: HAMSTER, Strain/Sex: SYRIAN/FEMALE, Target Tissue: Type of Lesion: LUNG: ADENOMA, Dose [Carcinogen]: 20 MG/KG BW 1X/WK FOR 2 WK (STUDY DURATION: 52 WK), Promoter: NONE). In addition, the “tumour outcome (control, treated, inhibition, significance)” value is given as 20/25 (80.0%), 25/28 (89.3%), -12%, not significant (Carcinogen: N-NITROSOBIS(2-OXOPROPYL)AMINE [60599-38-4], Dose [Inhibitor]: 6 UMOL IN DIET FOR 49 WK BEGINNING 2 WK POST LAST CARCINOGEN DOSE (STUDY DURATION: 52 WK), Species: HAMSTER, Strain/Sex: SYRIAN/FEMALE, Target Tissue: Type of Lesion: PANCREAS: ADENOCARCINOMA, Dose [Carcinogen]: 20 MG/KG BW 1X/WK FOR 2 WK (STUDY DURATION: 52 WK), Promoter: NONE); 100%, 100%, 0%, not significant (Carcinogen: N-NITROSOMETHYLBENZYLAMINE, 937-40-6, Dose [Inhibitor]: 0, 0.325 UMOL/G OF DIET FOR 25 WK BEGINNING 2 WK PRIOR TO CARCINOGEN TREATMENT (STUDY DURATION: 25 WK), Species: RAT, Strain/Sex: F344/MALE, Target Tissue: Type of Lesion: ESOPHAGUS: TUMORS, Dose [Carcinogen]: 0.5 MG/KG 1/WK FOR 15 WK, Promoter: NONE USED); 100%, 57%, 43%, not significant (Carcinogen: N-NITROSOMETHYLBENZYLAMINE, 937-40-6, Dose [Inhibitor]: 0, 0.4 UMOL/G IN DIET FOR 25 WK BEGINNING 2 WK PRIOR TO CARCINOGEN TREATMENT (STUDY DURATION: 25 WK), Species: RAT, Strain/Sex: F344/MALE, Target Tissue: Type of Lesion: ESOPHAGUS: TUMOR, Dose [Carcinogen]: 0.5 MG/KG BW IN 20% DMSO 1/WK FOR 15 WK, Promoter: NONE USED); 100%, 100%, 0%, not significant (Carcinogen: N-NITROSOMETHYLBENZYLAMINE, 937-40-6, Dose [Inhibitor]: 0, 0.75 UMOL/G OF DIET FOR 25 WK BEGINNING 2 WK PRIOR TO CARCINOGEN TREATMENT (STUDY DURATION: 25 WK), Species: RAT, Strain/Sex: F344/MALE, Target Tissue: Type of Lesion: ESOPHAGUS: TUMORS, Dose [Carcinogen]: 0.5 MG/KG 1/WK FOR 15 WK, Promoter: NONE USED); 100%, 40%, 60%, p<0.05 (Carcinogen: N-NITROSOMETHYLBENZYLAMINE, 937-40-6, Dose [Inhibitor]: 0, 1 UMOL/G IN DIET FOR 25 WK BEGINNING 2 WK PRIOR TO CARCINOGEN TREATMENT (STUDY DURATION: 25 WK), Species: RAT, Strain/Sex: F344/MALE, Target Tissue: Type of Lesion: ESOPHAGUS: TUMOR, Dose [Carcinogen]: 0.5 MG/KG BW IN 20% DMSO 1/WK FOR 15 WK, Promoter: NONE USED); 100%, 60%, 40%, p<0.01 (Carcinogen: N-NITROSOMETHYLBENZYLAMINE, 937-40-6, Dose [Inhibitor]: 0, 1.5 UMOL/G OF DIET FOR 25 WK BEGINNING 2 WK PRIOR TO CARCINOGEN TREATMENT (STUDY DURATION: 25 WK), Species: RAT, Strain/Sex: F344/MALE, Target Tissue: Type of Lesion: ESOPHAGUS: TUMORS, Dose [Carcinogen]: 0.5 MG/KG 1/WK FOR 15 WK, Promoter: NONE USED). Besides, the “tumour outcome (control, treated, inhibition, significance)” value is, setting by setting: (Carcinogen: N-NITROSOMETHYLBENZYLAMINE, 937-40-6, Dose [Inhibitor]: 0, 2.5 UMOL/G IN DIET FOR 25 WK BEGINNING 2 WK PRIOR TO CARCINOGEN TREATMENT (STUDY DURATION: 25 WK), Species: RAT, Strain/Sex: F344/MALE, Target Tissue: Type of Lesion: ESOPHAGUS: TUMOR, Dose [Carcinogen]: 0.5 MG/KG BW IN 20% DMSO 1/WK FOR 15 WK, Promoter: NONE USED) 100%, 7%, 93%, p<0.05; (Carcinogen: N-NITROSOMETHYLBENZYLAMINE, 937-40-6, Dose [Inhibitor]: 0, 3 UMOL/G OF DIET FOR 25 WK BEGINNING 2 WK PRIOR TO CARCINOGEN TREATMENT (STUDY DURATION: 25 WK), Species: RAT, Strain/Sex: F344/MALE, Target Tissue: Type of Lesion: ESOPHAGUS: TUMORS, Dose [Carcinogen]: 0.5 MG/KG 1/WK FOR 15 WK, Promoter: NONE USED) 100%, 0%, 100%, p<0.01; (Carcinogen: N-NITROSOMETHYLBENZYLAMINE, 937-40-6, Dose [Inhibitor]: 0, 500 PPM IN DIET FOR DURATION OF STUDY BEGINNING 1 WK POST CARCINOGEN TREATMENT (STUDY DURATION: 25 WK), Species: RAT, Strain/Sex: F344/MALE, Target Tissue: Type of Lesion: ESOPHAGUS: TUMOR, Dose [Carcinogen]: 1 MG/KG 3/WK FOR 5 WK, Promoter: NONE USED) 15/15 (100%), 14/15 (93%), 7%, not significant; (Carcinogen: N-NITROSOMETHYLBENZYLAMINE, 937-40-6, Dose [Inhibitor]: 0, 500 PPM IN DIET FOR DURATION OF STUDY BEGINNING 2 WK PRIOR TO CARCINOGEN TREATMENT (STUDY DURATION: 25 WK), Species: RAT, Strain/Sex: F344/MALE, Target Tissue: Type of Lesion: ESOPHAGUS: TUMOR, Dose [Carcinogen]: 1 MG/KG 3/WK FOR 5 WK, Promoter: NONE USED) 15/15 (100%), 7/15 (47%), 53%, p<0.01.
